Where two headings read alike, the source gives them in different places. One block for each sequence: values may come before it. Ends that are not written are not given here.
Experiments:
NCS-1 [1] = test: Peptide binding to NCS-1, preliminary data (technique not stated)
NCS-1 [2] = molecular target: T1, NCS-1 (Rattus norvegicus, UniProt P62168); test: Intrinsic tryptophan fluorescence titration of peptide binding to wild type NCS-1
T1 construct: His tag (TEV-cleavable, pET-M11) (N, cleaved yes); made in house; host or cells: E. coli BL21 (DE3)
Method: (§1) An expression construct of Rattus norvegicus NCS-1 [6] was sub-cloned from a pGEX-6p plasmid expressing NCS-1 [36] into pET-M11 vector. The primers were designed based on the cDNA sequence obtained from GenBank accession no. L27421 with Nco-1 and Kpn-1 as restriction digest sites. The sense and antisense strands were 5′[…] 3′ and 5′[…] CTA TAC CAG CCC GTC GTA 3 ′ respectively. Polymerase chain reaction was carried out using KOD Hot Start DNA Polymerase from Novagen. Confirmation of the insert was obtained through DNA sequencing. The R102Q mutation was generated by site-directed mutagenesis.
NCS-1 plasmid was transformed into E.coli strain BL21 (DE3) (Novagen). Protein expression in Luria Broth (LB) and 2M9 minimal media performed by growing the cells to mid log (0.6–0.7 OD A^o600) at 30 °C; after induction with 1 mM IPTG the culture was left to grow overnight at 18 °C. ^15N NCS-1 and doubly labelled ^13C^15N proteins were expressed using 2M9 media containing ^15NH4Cl only or ^13C glucose and ^15NH4Cl as the carbon and nitrogen source. 1 ml of the starter culture was grown in LB overnight, centrifuged, and the pellet added to a 50 ml labelled media and left to grow overnight in 50 ml labelled culture. The overnight culture was used to inoculate the labelled growth medium so that the starting optical density was less than 0.1 A-600 and protein expressed as described above. […]
(§2) To monitor intrinsic tryptophan fluorescence of NCS-1 proteins, [37], purified recombinant NCS-1 at a concentration of 1 µM in a calcium free buffer (20 mM HEPES, 139 mM NaCl, 2 mM ATP, 5 mM EGTA, 5 mM nitrolotriacetic acid, pH 7.4) were excited at room temperature with 280 nm light, and their emission spectra from 290–410 nm were measured, using a Jasco FP-6300 spectrofluorometer (Tokyo, Japan). The concentration of free calcium was increased by addition of CaCl2 to give a calculated free Ca^2+ concentration of 1 µM and an additional emission spectrum were measured. The D2 peptide was then added to give incremental increase in peptide concentration with emission spectra measured after each addition. The data for the measured fluorescence change at each peptide concentration were fitted to a logistic fit using non-linear curve fitting in OriginPro (Microcal).
Figure 2 Binding of the dopamine D2 receptor C-terminus to NCS-1 monitored using tryptophan fluorescence. (A) The spectra represent intrinsic tryptophan fluorescence of NCS-1 before and after addition 1 µM Ca^2+ and after subsequent addition of the D2SR peptide. (B) Extent of the changes in tryptophan fluorescence following sequential additions of D2SR peptide to the final concentrations indicated. […]

NCS-1 [3] = molecular target: T1, NCS-1; test: NMR titration / chemical shift mapping of peptide binding to NCS-1
Method: as §1
NCS-1 plasmid was transformed into E.coli strain BL21 (DE3) (Novagen). Protein expression in Luria Broth (LB) and 2M9 minimal media performed by growing the cells to mid log (0.6–0.7 OD A^o600) at 30 °C; after induction with 1 mM IPTG the culture was left to grow overnight at 18 °C. ^15N NCS-1 and doubly labelled ^13C^15N proteins were expressed using 2M9 media containing ^15NH4Cl only or ^13C glucose and ^15NH4Cl as the carbon and nitrogen source. 1 ml of the starter culture was grown in LB overnight, centrifuged, and the pellet added to a 50 ml labelled media and left to grow overnight in 50 ml labelled culture. The overnight culture was used to inoculate the labelled growth medium so that the starting optical density was less than 0.1 A-600 and protein expressed as described above. Cells were harvested and resuspended into the lysis buffer (50 mM TrisHCl, 200 mM NaCl 5 mMCaCl2 pH 7.5 plus a tablet per litre of culture of Complete EDTA Free Protease inhibitor (Roche Applied Science).
NCS-1 was prepared in Tris buffer pH 6.8 in the presence of 5 mM MgCl2 and 5 mM CaCl2. Unless otherwise state, NMR spectra were recorded at 27 °C on Bruker DRX 800 and 600 MHz spectrometers equipped with CryoProbes. Data were processed using the Bruker Software TopSpin and analysed using CCPN software. Sequence-specific backbone and side-chain resonance assignment of NCS-1 was transferred from the previously reported assignments on unmyristoylated Ca^2+ loaded NCS-1 (Biological Magnetic Resonance Data Bank accession number 4378); however, due to differences in sample conditions and temperature, many resonances were re-assigned during the course of these studies using HNCA, HN(CO)CA, HNCO, HN(CA)CO, CBCA(CO)NH, CBCANH, HBHA(CO)NH and HCCH-TOCSY experiments. In addition, the resonance assignment for the aromatic side-chain had been incomplete. The aromatic side-chains were partially assigned using 2D [^1H, ^13C] -TROSY, and homonuclear TOCSY and NOESY spectra recorded in D2O.
(§3) Two peptides D2 and D2SR were used for the NMR studies. […] The peptides were first dissolved in minimal amounts of DMSO (approximately 1–2 µl) before adding the protein solution to achieve the appropriate peptide to protein ratio.
The minimum chemical-shift differences between free and D2-bound NCS-1 were expressed as: Δδ = √ {(ΔH/0.03)^2 + (ΔN/0.03)^2}. Values of Δδ greater than 0.07 were considered significant.
Figure 3 Interactions between NCS-1 and D2 Peptide monitored using NMR spectroscopy. (A) ^1H^15N HSQC spectra of ^15N,^13C NCS-1 (1 mM) in 50 mM Tris buffer, 50 mM NaCl, 5 mM CaCl2, pH 6.5, 300 K on Avance Bruker 800 MHz spectrometer in the absence (black) or in the presence of D2SR at a final concentration of 5 mM (red). (B) Sections of ^1H^15N HSQC spectra of ^15N,^13C NCS-1 showing the progression of peaks throughout the peptide titration (from black to red). Shown are the various characteristics of resonance perturbation ranging from complete line-broadening to gradual change in chemical shifts or a mixture of shifts and line-broadening. (C) ^1H^13C HSQC spectra of ^15N,^13C NCS-1 (1 mM) (black) in the presence of D2SR (final concentration of 5 mM) (red) indicating some of the resolved methyl groups with most significant shift changes.

NCS-1 [4] = conditions: receptor residues 428–435; cited from earlier work
Source text: This seems surprising as these are the cytoplasmic residues in closest proximity to the transmembrane domain of the receptor and that in the structure of the dopamine D3 receptor (PDB accession 3PBL), the first two amino acids TF form part of penultimate helix VII of the receptor, rather than the C-terminus helix VIII.

[5] = Solubility of peptides in aqueous buffer; format: physicochemical
Source text: The peptide (hereafter referred to as D2 peptide) used here corresponds to residues 428–443 of the human D2 receptor. The synthetic D2 peptide ([…]) and its modified form D2SR ([…]), were purchased from Peptide Protein Research Ltd., Fareham, PO15 6DP, UK. The shorter form, corresponding to residues 428–435 ([…]) were, purchased from GenicBio, China. The peptides was delivered >95% pure. […] Therefore, in all the experiments, peptide samples were first dissolved in a minimal amount of DMSO and then diluted with the relevant buffer. If necessary, pH values of the samples were re-adjusted to the desired value.
as §3

R102Q NCS-1 = molecular target: T2, R102Q NCS-1 (Rattus norvegicus, UniProt P62168, R102Q); test: Intrinsic tryptophan fluorescence titration of peptide binding to R102Q NCS-1
T2 construct: His tag (TEV-cleavable, pET-M11) (N, cleaved yes); made in house; host or cells: E. coli BL21 (DE3)
Method: as §1, §2
Figure 6 Significant line-broadening in the C-terminal region of NCS-1 and effect of the R102Q mutation on peptide binding. […] (B) Extent of the changes in tryptophan fluorescence following sequential additions of D2SR peptide to the final concentrations indicated in the presence of 1 µM Ca^2+. […] (C) Curve fitting of data from separate tryptophan fluorescence experiments enables determination of the concentration of D2SR peptide required for half-maximal binding and the Hill coefficient for wild type and R102Q NCS-1. […]

[6] = up to a 10-fold excess of peptide

T2 sequence (P62168 whole entry R102Q): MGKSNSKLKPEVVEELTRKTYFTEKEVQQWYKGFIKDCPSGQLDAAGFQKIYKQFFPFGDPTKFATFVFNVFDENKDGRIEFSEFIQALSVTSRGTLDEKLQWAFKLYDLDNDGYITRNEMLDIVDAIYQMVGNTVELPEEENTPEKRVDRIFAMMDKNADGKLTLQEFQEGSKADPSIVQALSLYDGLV
T1 sequence (P62168 whole entry): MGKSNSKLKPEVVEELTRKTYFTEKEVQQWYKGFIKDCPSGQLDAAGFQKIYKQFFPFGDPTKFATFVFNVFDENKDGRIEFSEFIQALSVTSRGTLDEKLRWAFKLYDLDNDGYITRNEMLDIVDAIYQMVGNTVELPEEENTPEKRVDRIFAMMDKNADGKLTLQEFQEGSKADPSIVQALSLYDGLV

Sequence: NIEFRKAFLKILHS
affinity for NCS-1 relative to TFNIEFRKAFLKILHS (NCS-1 [1]): able to bind NCS-1 with similar affinity to […]

ability to bind NCS-1 (restated finding, binding assays) (NCS-1 [2]; 8-residue peptide, binding assays = fluorescence and NMR titrations): not able to bind NCS-1 | interaction with NCS-1 by fluorescence titration (NCS-1 [2]; [6]): no evidence for an interaction | interaction with NCS-1 by NMR titration (NCS-1 [3]; [6]): no evidence for an interaction
Sequence: TFNIEFRK [shorter form, corresponding to residues 428–435 of the D2 receptor]
binding to NCS-1 (yeast 2-hybrid) (NCS-1 [4]): shortest peptide that could bind NCS-1

solubility in aqueous buffer [5]: rather insoluble in aqueous buffer
Sequence: TFNIEFRKAFLKILHC [D2 peptide]

solubility in aqueous buffer ([5]; peptides first dissolved in DMSO, then diluted with buffer): rather insoluble in aqueous buffer | solubility improvement over D2 peptide ([5]; two extra amino acids intended to increase solubility): solubility improvement was only marginal | Hill coefficient (NCS-1 [2]; D2SR, wild type NCS-1, 1 µM free Ca^2+, logistic fit, n = 5): ~1.5 | Hill coefficient (R102Q NCS-1; D2SR, R102Q NCS-1, 1 µM Ca^2+, logistic fit, n = 4): around 1.5 | increase in affinity of the protein for D2SR by R102Q mutation (R102Q NCS-1; R102Q (n = 4) versus wild type (n = 5) NCS-1, 1 µM Ca^2+, unpaired Student's t-test): 2.07 fold | exchange regime of NCS-1 resonances (NCS-1 [3]; HSQC titration, D2SR): intermediate to fast exchange regime | least affected NCS-1 regions (NCS-1 [3]; HSQC titration, D2SR): helices1, 5, 8 and part of 2
Sequence: TFNIEFRKAFLKILHSR [D2SR]
change in NCS-1 tryptophan fluorescence above that following addition of 1 µM free Ca^2+ (NCS-1 [2]; 1 µM free Ca^2+): additional increase in fluorescence of a similar magnitude | affinity of binding to R102Q versus wild type NCS-1 (R102Q NCS-1; compared with wild-type NCS-1): affinity of binding was increased in the mutant | most affected NCS-1 regions, mapped onto 1G8I (NCS-1 [3]; HSQC titration, D2SR): residues located either in the hydrophobic ligand-binding crevice or in the regions linking the helical regions of the EF hands | NCS-1 resonance perturbation (chemical shift changes/broadening) (NCS-1 [3]; ^1H-^15N and ^1H-^13C HSQC of ^15N,^13C NCS-1, 27 °C and 35 °C): At both temperatures chemical shift changes and/or broadening of specific NCS-1 resonances were observed | line-broadening of C-terminal residues 180–190 (helix 11) of NCS-1 (NCS-1 [3]; ^1H^15N HSQC, peptide titration, 1 mM NCS-1, 0.5 mM D2SR, pH 6.5, 300 K): line-broadening occurring at sub-stoichiometric concentrations of D2SR

From paper PMC3218054, “Characterisation of the Interaction of the C-Terminus of the Dopamine D2 Receptor with Neuronal Calcium Sensor-1” (PLoS ONE, 2011)
